Experimental data published in the supplement of paper PMC6580486.

Assays:
[1] = system: PCB490-3 (human epithelioid sarcoma primary culture)
Description: (§1)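 Roche open-access kinase inhibitor screen (223 compounds) on human epithelioid sarcoma primary cultures from three spatially distinct regions of tumor PCB490. 384-well plates, 72 h, CellTiter-Glo viability; IC50 by Hill curve fit. 100000 nM = no IC50 reached. Compound ids carry a plate-well prefix, which is stripped.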

[2] = system: PCB490-4 (human epithelioid sarcoma primary culture)
Description: as §1

[3] = system: PCB490-5 (human epithelioid sarcoma primary culture)
Description: as §1

Nc1c(C(=O)c2ccc(-c3cccnc3)cc2)cnn1-c1ccc(F)cc1
IC50 cell viability [1]: > 100 µM
IC50 cell viability [2]: > 100 µM
IC50 cell viability [3]: > 100 µM

CC(C)c1[nH]nc2c1N=C(c1ccccc1Cl)c1cc([N+](=O)[O-])ccc1N2
IC50 cell viability [1]: > 100 µM
IC50 cell viability [2]: > 100 µM
IC50 cell viability [3]: > 100 µM

COc1ccc(C2=C(c3cn(C)c4ccccc34)C(=O)NC2=O)cc1
IC50 cell viability [1]: > 100 µM
IC50 cell viability [2]: > 100 µM
IC50 cell viability [3]: > 100 µM

C[C@H](CS(C)(=O)=O)Nc1ncc2cc(Oc3ccc(F)cc3F)c(=O)n(C)c2n1
IC50 cell viability [1]: > 100 µM
IC50 cell viability [2]: > 100 µM
IC50 cell viability [3]: > 100 µM

Fc1ccc(-c2c(-c3ccncc3)n(CCN3CCOCC3)c3cccnc23)cc1
IC50 cell viability [1]: > 100 µM
IC50 cell viability [2]: > 100 µM
IC50 cell viability [3]: > 100 µM

N#Cc1cccc(C(=O)c2cnn(-c3ccc(F)cc3)c2N)c1
IC50 cell viability [1]: > 100 µM
IC50 cell viability [2]: > 100 µM
IC50 cell viability [3]: > 100 µM

COc1ccc(F)cc1C(=O)c1cnc(NC2CCN(S(C)(=O)=O)CC2)nc1N
IC50 cell viability [1]: > 100 µM
IC50 cell viability [2]: > 100 µM
IC50 cell viability [3]: > 100 µM

Cn1cc(C2=C(c3c4n(c5ccccc35)CCNC4)C(=O)NC2=O)c2ccccc21
IC50 cell viability [1]: > 100 µM
IC50 cell viability [2]: > 100 µM
IC50 cell viability [3]: > 100 µM

Cn1cc(C2=C(c3cn(C)c4ccccc34)C(=O)NC2=O)c2ccccc21
IC50 cell viability [1]: > 100 µM
IC50 cell viability [2]: > 100 µM
IC50 cell viability [3]: > 100 µM

Cn1c(=O)c(Cc2ccc(F)cc2F)cc2cnc(NC3CCOCC3)nc21
IC50 cell viability [1]: > 100 µM
IC50 cell viability [2]: > 100 µM
IC50 cell viability [3]: > 100 µM

CN(C)CC#Cc1cccc(C(=O)c2cnn(-c3ccc(F)cc3)c2N)c1
IC50 cell viability [1]: > 100 µM
IC50 cell viability [2]: > 100 µM
IC50 cell viability [3]: > 100 µM

O=C1NC(=NCCCc2ccccc2)S/C1=C\c1ccc2ncccc2c1
IC50 cell viability [1]: > 100 µM
IC50 cell viability [2]: > 100 µM
IC50 cell viability [3]: > 100 µM

Cn1c(=O)c(Oc2ccc(F)cc2)cc2cnc(NC3CCOCC3)nc21
IC50 cell viability [1]: > 100 µM
IC50 cell viability [2]: > 100 µM
IC50 cell viability [3]: > 100 µM

CN1CCN(CCc2cccc(C(=O)c3cnn(-c4ccc(F)cc4)c3N)c2)CC1
IC50 cell viability [1]: > 100 µM
IC50 cell viability [2]: > 100 µM
IC50 cell viability [3]: > 100 µM

Cn1cc(C2=C(c3cn(C)c4ccc(Cl)cc34)C(=O)NC2=O)c2ccccc21
IC50 cell viability [1]: > 100 µM
IC50 cell viability [2]: > 100 µM
IC50 cell viability [3]: > 100 µM

CC(=O)N[C@@H](Cc1ccc(OP(=O)(O)O)cc1)C(=O)N[C@H]1CCC(=O)N2CCC[C@@H](C(=O)NCc3cccc4ccccc34)N2C1=O
IC50 cell viability [1]: > 100 µM
IC50 cell viability [2]: > 100 µM
IC50 cell viability [3]: > 100 µM

O=c1c(Oc2ccc(F)cc2F)cc2cnc(NC3CCOCC3)nc2n1C1CCS(=O)(=O)CC1
IC50 cell viability [1]: > 100 µM
IC50 cell viability [2]: > 100 µM
IC50 cell viability [3]: > 100 µM

COc1cccc(C2=C(c3cn(C)c4cccc(OC)c34)C(=O)NC2=O)c1
IC50 cell viability [1]: > 100 µM
IC50 cell viability [2]: > 100 µM
IC50 cell viability [3]: > 100 µM

CC(=O)N[C@@H](Cc1ccc(OP(=O)(O)O)cc1)C(=O)N[C@H]1CCC(=O)N2CCC[C@@H](C(=O)NCc3ccc(O)cc3)N2C1=O
IC50 cell viability [1]: > 100 µM
IC50 cell viability [2]: > 100 µM
IC50 cell viability [3]: > 100 µM

COc1cc[nH]c1/C=C1\C(=O)Nc2ccc([N+](=O)[O-])c(N3CC[C@@H](O)C3)c21
IC50 cell viability [1]: 4.87 µM
IC50 cell viability [2]: 7.83 µM
IC50 cell viability [3]: 4.71 µM

Cc1[nH]nc2c1N=C(c1ccccc1F)c1cc(C(N)=O)ccc1N2
IC50 cell viability [1]: > 100 µM
IC50 cell viability [2]: 2.66 µM
IC50 cell viability [3]: 4.23 µM

O=C1NC(=NCc2ccccc2)S/C1=C\c1ccc2ncccc2c1
IC50 cell viability [1]: > 100 µM
IC50 cell viability [2]: > 100 µM
IC50 cell viability [3]: > 100 µM

O=C1NC(=NCc2ccccc2Br)S/C1=C\c1ccc2ncccc2c1
IC50 cell viability [1]: > 100 µM
IC50 cell viability [2]: > 100 µM
IC50 cell viability [3]: > 100 µM

CC(=O)N1CCC(Nc2ncc3cc(Oc4ccc(F)cc4F)c(=O)n(C)c3n2)CC1
IC50 cell viability [1]: > 100 µM
IC50 cell viability [2]: > 100 µM
IC50 cell viability [3]: > 100 µM

Cc1[nH]n(-c2ccccc2)c(=O)c1C(=O)c1ccccc1
IC50 cell viability [1]: > 100 µM
IC50 cell viability [2]: > 100 µM
IC50 cell viability [3]: > 100 µM

Cn1cc(C2=C(c3ccccc3C(F)(F)F)C(=O)NC2=O)c2ccccc21
IC50 cell viability [1]: > 100 µM
IC50 cell viability [2]: > 100 µM
IC50 cell viability [3]: > 100 µM

CC(C)Nc1ncc2cc(Oc3ccc(F)cc3F)c(=O)n(C)c2n1
IC50 cell viability [1]: > 100 µM
IC50 cell viability [2]: > 100 µM
IC50 cell viability [3]: > 100 µM

O=C1NC(=Nc2ccccc2)S/C1=C\c1ccc2ncccc2c1
IC50 cell viability [1]: > 100 µM
IC50 cell viability [2]: > 100 µM
IC50 cell viability [3]: > 100 µM

Cn1c(=O)c(Oc2ccc(F)cc2F)cc2cnc(NC3CCC(O)CC3)nc21 (stereo not given)
IC50 cell viability [1]: > 100 µM
IC50 cell viability [2]: > 100 µM
IC50 cell viability [3]: > 100 µM

CNc1ncc2cc(Oc3ccc(F)cc3F)c(=O)n(C)c2n1
IC50 cell viability [1]: > 100 µM
IC50 cell viability [2]: > 100 µM
IC50 cell viability [3]: > 100 µM

O=C1NC(=NCCc2ccccn2)S/C1=C\c1ccc2ncccc2c1
IC50 cell viability [1]: > 100 µM
IC50 cell viability [2]: > 100 µM
IC50 cell viability [3]: > 100 µM

CC(C)(O)Cn1c(=O)c(Oc2ccc(F)cc2F)cc2cnc(NC3CCOCC3)nc21
IC50 cell viability [1]: 2.86 µM
IC50 cell viability [2]: > 100 µM
IC50 cell viability [3]: > 100 µM

CS(=O)(=O)N1CCC(n2c(=O)c(Oc3ccc(F)cc3F)cc3cnc(NC4CCOCC4)nc32)CC1
IC50 cell viability [1]: > 100 µM
IC50 cell viability [2]: > 100 µM
IC50 cell viability [3]: > 100 µM

Cn1cc(C2=C(c3c[nH]c4ccccc34)C(=O)NC2=O)c2ccccc21
IC50 cell viability [1]: > 100 µM
IC50 cell viability [2]: > 100 µM
IC50 cell viability [3]: > 100 µM

Cn1cc(C2=C(c3c([S+](C)[O-])n(C)c4ccccc34)C(=O)NC2=O)c2ccccc21 (stereo not given)
IC50 cell viability [1]: > 100 µM
IC50 cell viability [2]: > 100 µM
IC50 cell viability [3]: > 100 µM

Cn1cc(C2=C(c3cn(CCCN=C(N)N)c4ccccc34)C(=O)NC2=O)c2ccccc21
IC50 cell viability [1]: > 100 µM
IC50 cell viability [2]: > 100 µM
IC50 cell viability [3]: > 100 µM

Nc1c(C(=O)c2cccc(-c3ccncc3)c2)cnn1-c1ccc(F)cc1F
IC50 cell viability [1]: > 100 µM
IC50 cell viability [2]: > 100 µM
IC50 cell viability [3]: > 100 µM

CN=C1NC(=O)/C(=C/c2ccc3ncccc3c2)S1
IC50 cell viability [1]: > 100 µM
IC50 cell viability [2]: > 100 µM
IC50 cell viability [3]: > 100 µM

Cn1cc(C2=C(n3ccc4ccccc43)C(=O)NC2=O)c2ccccc21
IC50 cell viability [1]: > 100 µM
IC50 cell viability [2]: > 100 µM
IC50 cell viability [3]: > 100 µM

Nc1c(C(=O)c2cccc(-c3cccnc3)c2)cnn1-c1ccc(F)cc1
IC50 cell viability [1]: > 100 µM
IC50 cell viability [2]: > 100 µM
IC50 cell viability [3]: > 100 µM

COc1cc[nH]c1/C=C1\C(=O)Nc2ccc(F)c(C#C[C@@H](O)[C@@H](N)[C@@H](C)O)c21
IC50 cell viability [1]: > 100 µM
IC50 cell viability [2]: 4.44 µM
IC50 cell viability [3]: 2.07 µM

COc1cccc(C(=O)c2sc(Nc3ccc(N4CCN(C(C)C)CC4)cc3)nc2N)c1
IC50 cell viability [1]: > 100 µM
IC50 cell viability [2]: > 100 µM
IC50 cell viability [3]: > 100 µM

COc1cccc(C2=C(c3cn(C)c4ccc(Cl)cc34)C(=O)NC2=O)c1
IC50 cell viability [1]: > 100 µM
IC50 cell viability [2]: > 100 µM
IC50 cell viability [3]: > 100 µM

Nc1c(C(=O)c2cccc(-c3ccncc3)c2)cnn1-c1ccc(F)cc1
IC50 cell viability [1]: > 100 µM
IC50 cell viability [2]: > 100 µM
IC50 cell viability [3]: > 100 µM

Cn1cc(C2=C(c3c4n(c5ccccc35)CCCC4)C(=O)NC2=O)c2ccccc21
IC50 cell viability [1]: > 100 µM
IC50 cell viability [2]: > 100 µM
IC50 cell viability [3]: > 100 µM

Cn1cc(C2=C(Sc3ccccc3)C(=O)NC2=O)c2ccccc21
IC50 cell viability [1]: > 100 µM
IC50 cell viability [2]: > 100 µM
IC50 cell viability [3]: > 100 µM

O=C1NC(=NCCc2cccc(Cl)c2)S/C1=C\c1ccc2ncccc2c1
IC50 cell viability [1]: > 100 µM
IC50 cell viability [2]: > 100 µM
IC50 cell viability [3]: > 100 µM

Cn1cc(C2=C(c3c4n(c5ccccc35)CCC(CN)CC4)C(=O)NC2=O)c2ccccc21 (stereo not given)
IC50 cell viability [1]: > 100 µM
IC50 cell viability [2]: > 100 µM
IC50 cell viability [3]: > 100 µM

Cc1cc(C)c2c(n1)sc1c(N)ncnc12
IC50 cell viability [1]: > 100 µM
IC50 cell viability [2]: > 100 µM
IC50 cell viability [3]: > 100 µM

CO/N=C(\c1ccccc1)c1cnn(-c2ccccc2)c1N
IC50 cell viability [1]: > 100 µM
IC50 cell viability [2]: > 100 µM
IC50 cell viability [3]: > 100 µM

Nc1c(C(=O)c2cccc(C#CCN3CCOCC3)c2)cnn1-c1ccc(F)cc1
IC50 cell viability [1]: > 100 µM
IC50 cell viability [2]: > 100 µM
IC50 cell viability [3]: > 100 µM

COc1ccc(OC)c(C2=C(c3cn(C)c4ccccc34)C(=O)NC2=O)c1
IC50 cell viability [1]: > 100 µM
IC50 cell viability [2]: > 100 µM
IC50 cell viability [3]: > 100 µM

Cn1cc(C2=C(c3cccc4ccccc34)C(=O)NC2=O)c2ccccc21
IC50 cell viability [1]: > 100 µM
IC50 cell viability [2]: > 100 µM
IC50 cell viability [3]: > 100 µM

COc1ccccc1C(=O)c1cnc(NC2CCN(S(C)(=O)=O)CC2)nc1N
IC50 cell viability [1]: > 100 µM
IC50 cell viability [2]: > 100 µM
IC50 cell viability [3]: > 100 µM

CNCC1CCn2c(c(C3=C(c4cn(C)c5ccccc45)C(=O)NC3=O)c3ccccc32)C1 (stereo not given)
IC50 cell viability [1]: 0.89 µM
IC50 cell viability [2]: > 100 µM
IC50 cell viability [3]: > 100 µM

Cn1cc(C2=C(c3cn(CCO)c4ccccc34)C(=O)NC2=O)c2ccccc21
IC50 cell viability [1]: > 100 µM
IC50 cell viability [2]: > 100 µM
IC50 cell viability [3]: > 100 µM

C/C(=C1/SC(=NCc2cccs2)NC1=O)c1ccc2ncccc2c1
IC50 cell viability [1]: > 100 µM
IC50 cell viability [2]: > 100 µM
IC50 cell viability [3]: > 100 µM

OCCn1c(-c2ccncc2)c(-c2ccc(F)cc2)c2ncccc21
IC50 cell viability [1]: > 100 µM
IC50 cell viability [2]: > 100 µM
IC50 cell viability [3]: > 100 µM

O=C1NC(=NCCc2ccc(F)cc2)S/C1=C\c1ccc2ncccc2c1
IC50 cell viability [1]: > 100 µM
IC50 cell viability [2]: > 100 µM
IC50 cell viability [3]: > 100 µM

Fc1ccc(-c2c(-c3ccncc3)[nH]c3nccnc23)cc1
IC50 cell viability [1]: > 100 µM
IC50 cell viability [2]: > 100 µM
IC50 cell viability [3]: > 100 µM
